Reference: patent publication US6737383B1, “Herbicidal oxadiazolidines” (priority 1999, dated 2004)

Legend:
morningglory = assay: Test B pre/postemergence morningglory; type: in vivo, Ipomoea hederacea
Summary of the method: (§1)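 Test chemicals in a non-phytotoxic solvent mixture with surfactant were sprayed preemergence onto planted seeds and postemergence onto plants 2 to 18 cm tall (1- to 4-leaf stage). After twelve to sixteen days in a greenhouse, injury was visually rated against untreated controls from 0 (no effect) to 10 (complete control).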

rape = assay: Test B pre/postemergence rape; type: in vivo, Brassica napus
Summary of the method: as §1

smallflower flatsedge = assay: Test B flood test smallflower flatsedge; type: in vivo, Cyperus difformis; conditions: for S. Flatsedge plant response rating (0 to 10 scale, 0 is no effect, 10 is complete control): under heading Pre-emergence
Summary of the method: (§2)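 Flood test on plants grown to the 2-leaf stage; treated plants kept in greenhouse twelve to sixteen days, then visually rated against controls on a 0 (no effect) to 10 (complete control) scale.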

bamyardgrass = assay: Test B flood test barnyardgrass; type: in vivo, Echinochloa crus-galli; conditions: for Barnyardgrass plant response rating (0 to 10 scale, 0 is no effect, 10 is complete control): under heading Pre-emergence
Summary of the method: as §2

[1] = Postemergence, Rate 250 g/ha, scale 0 to 10, 0 is no effect, 10 is complete control
[2] = Postemergence, Rate 500 g/ha, scale of 0 to 10 where 0 is no effect and 10 is complete control
[3] = Preemergence, Rate 62 g/ha, scale 0 to 10 (0 no effect, 10 complete control)
[4] = Preemergence, Rate 125 g/ha, scale of 0 to 10 where 0 is no effect and 10 is complete control
[5] = Preemergence, Rate 250 g/ha, scale 0 to 10, 0 is no effect, 10 is complete control
[6] = Preemergence, Rate 500 g/ha, scale 0 to 10, 0 is no effect, 10 is complete control
[7] = Rate 62 g/ha, Postemergence, scale of 0 to 10 where 0 is no effect and 10 is complete control
[8] = Rate 62 g/ha, flood test species, Pre-emergence, visual evaluation after twelve to sixteen days
[9] = Rate 125 g/ha, flood test species, visual evaluation after twelve to sixteen days
[10] = Rate 250 g/ha, Pre-emergence, flood-test species, scale 0 to 10, 0 is no effect, 10 is complete control
[11] = Rate 500 g/ha, Pre-emergence, flood test species, scale 0 to 10 (0 no effect, 10 complete control)
[12] = Postemergence, Rate 125 g/ha, scale of 0 to 10 where 0 is no effect and 10 is complete control
[13] = Postemergence, Rate 250 g/ha, scale of 0 to 10, 0 is no effect, 10 is complete control
[14] = Postemergence, Rate 1000 g/ha, scale 0 to 10 (0 no effect, 10 complete control)
[15] = Preemergence, Rate 500 g/ha, scale of 0 to 10 where 0 is no effect and 10 is complete control
[16] = Rate 1000 g/ha, Preemergence, scale 0 to 10 (0 no effect, 10 complete control)
[17] = Pre-emergence, Rate 1000 g/ha, scale 0 to 10 (0 no effect, 10 complete control)
[18] = Rate 250 g/ha, Pre-emergence (flood test species), scale 0 to 10, 0 is no effect, 10 is complete control
[19] = Rate 500 g/ha, Pre-emergence section of Table B, 0 to 10 scale (0 no effect, 10 complete control)
[20] = Postemergence, Rate 250 g/ha, scale 0 to 10
[21] = Rate 62 g/ha, Postemergence, scale 0 to 10, 0 no effect, 10 complete control
[22] = Rate 125 g/ha, Postemergence, scale 0 to 10, 0 is no effect, 10 is complete control
[23] = Postemergence block (flood test species), Rate 250 g/ha, scale 0 to 10
[24] = Postemergence section (flood test species), Rate 500 g/ha, scale of 0 to 10 where 0 is no effect and 10 is complete control
[25] = Rate 62 g/ha, Postemergence (flood test), scale 0 to 10, 0 no effect, 10 complete control
[26] = Rate 125 g/ha, Postemergence section (flood test species), scale 0 to 10, 0 is no effect, 10 is complete control

CC(C)N(C(=O)n1oc(=O)n(CC2CCC2)c1=O)c1ccc(F)cc1 [Compound 403]
Plant response rating, Morningglory (morningglory; [1]): 8
Morningglory plant response rating (morningglory; [2]): 10
Plant response rating, Morningglory (morningglory; [3]): 0
Plant response rating, Morningglory (morningglory; [4]): 0
Morningglory plant response rating (morningglory; [5]): 0
Morningglory plant response rating (morningglory; [6]): 0
Morningglory plant response rating (morningglory; [7]): 2
Plant response rating, Rape (rape; [1]): 4
Rape plant response rating (rape; [2]): 7
Plant response rating, Rape (rape; [3]): 0
Plant response rating, Rape (rape; [4]): 1
Rape plant response rating (rape; [5]): 5
Rape plant response rating (rape; [6]): 7
Rape plant response rating (rape; [7]): 2
Plant response rating, S. Flatsedge (0 to 10 scale, 0 is no effect, 10 is complete control) (smallflower flatsedge; [8]): 0
S. Flatsedge plant response rating (0 to 10 scale, 0 is no effect, 10 is complete control) (smallflower flatsedge; [9]): 0
S. Flatsedge plant response rating (smallflower flatsedge; [10]): 0
S. Flatsedge plant response rating (smallflower flatsedge; [11]): 6
Plant response rating, Barnyardgrass (0 to 10 scale, 0 is no effect, 10 is complete control) (bamyardgrass; [8]): 2
Barnyardgrass plant response rating (0 to 10 scale, 0 is no effect, 10 is complete control) (bamyardgrass; [9]): 4
Barnyardgrass plant response rating (bamyardgrass; [10]): 2
Barnyardgrass plant response rating (bamyardgrass; [11]): 7

C=CCn1c(=O)on(C(=O)N(c2c(C)cccc2C)C(C)COC)c1=O (centres unmarked) [Compound 600]
Plant response rating, Morningglory (morningglory; [12]): 0
Morningglory plant response rating (morningglory; [13]): 0
Plant response rating, Morningglory (morningglory; [2]): 0
Morningglory plant response rating (morningglory; [14]): 0
Morningglory plant response rating (morningglory; [4]): 0
Plant response rating, Morningglory (morningglory; [15]): 0
Plant response rating, Morningglory (morningglory; [16]): 0
Plant response rating, Rape (rape; [12]): 0
Rape plant response rating (rape; [13]): 0
Plant response rating, Rape (rape; [2]): 0
Rape plant response rating (rape; [14]): 0
Rape plant response rating (rape; [4]): 0
Plant response rating, Rape (rape; [15]): 0
Plant response rating, Rape (rape; [16]): 0
S. Flatsedge plant response rating (smallflower flatsedge; [17]): 0
S. Flatsedge plant response rating (0 to 10 scale, 0 is no effect, 10 is complete control) (smallflower flatsedge; [9]): 0
S. Flatsedge plant response rating (smallflower flatsedge; [18]): 0
S. Flatsedge plant response rating (smallflower flatsedge; [19]): 0
Barnyardgrass plant response rating (bamyardgrass; [17]): 0
Barnyardgrass plant response rating (0 to 10 scale, 0 is no effect, 10 is complete control) (bamyardgrass; [9]): 0
Barnyardgrass plant response rating (bamyardgrass; [18]): 0
Barnyardgrass plant response rating (bamyardgrass; [19]): 0

CC(C)N(C(=O)n1oc(=O)n(CCC#N)c1=O)c1ccccc1 [Compound 436]
Morningglory plant response rating (morningglory; [20]): 2
Morningglory plant response rating (morningglory; [2]): 10
Plant response rating, Morningglory (morningglory; [3]): 0
Plant response rating, Morningglory (morningglory; [4]): 0
Morningglory plant response rating (morningglory; [5]): 0
Morningglory plant response rating (morningglory; [6]): 1
Morningglory plant response rating (morningglory; [21]): 0
Morningglory plant response rating (morningglory; [22]): 0
Rape plant response rating (rape; [20]): 0
Rape plant response rating (rape; [2]): 4
Plant response rating, Rape (rape; [3]): 0
Plant response rating, Rape (rape; [4]): 0
Rape plant response rating (rape; [5]): 0
Rape plant response rating (rape; [6]): 10
Rape plant response rating (rape; [21]): 0
Rape plant response rating (rape; [22]): 0
S. Flatsedge plant response rating (smallflower flatsedge; [23]): 0
S. Flatsedge plant response rating (smallflower flatsedge; [24]): 0
S. Flatsedge plant response rating (smallflower flatsedge; [25]): 0
S. Flatsedge plant response rating (smallflower flatsedge; [26]): 0
Barnyardgrass plant response rating (bamyardgrass; [23]): 0
Barnyardgrass plant response rating (bamyardgrass; [24]): 0
Barnyardgrass plant response rating (bamyardgrass; [25]): 0
Barnyardgrass plant response rating (bamyardgrass; [26]): 0
